Source: article PMC6155239, “Targeting PFKFB3 radiosensitizes cancer cells and suppresses homologous recombination” (Nature Communications, 2018)
Entries after “also recorded” stand apart in the source; their conditions may differ.

Experiments:
U2OS cells [1] = test: IR-induced nuclear recruitment of PFKFB3; type: cell-based; settings: 2 h prior to IR
Method: (§1) Cells were grown on sterilized coverslips and fixed with 4% paraformaldehyde (PFA) (Santa Cruz) and 2% sucrose (Sigma Aldrich) for 15 min at room temperature. They were then permeabilized with 0.2% NP-40 (Thermo Scientific) for 10 min at room temperature followed by 30 min of blocking in blocking buffer (2 or 3% BSA, 5% glycerol, 0.1% Tween 20 (Sigma Aldrich)). Coverslips were subsequently incubated for 1, 2, or 24 h in primary antibody and 40 min in secondary antibody diluted in blocking buffer, DNA was stained with DAPI for 10 min. The coverslips were mounted with Prolonged Gold mounting medium (Invitrogen). Images were acquired with a Zeiss LSM 780 microscope using a 40× or 63× oil immersion lens and processed in ImageJ and CellProfiler.

U2OS cells [2] = test: IR-induced Mre11 / Nbs1 foci formation; type: cell-based; settings: treatment prior to IR (6 Gy, 2 h recovery)
Method: as §1

PFKFB3 = PFKFB3 (Homo sapiens, UniProt Q16875); test: ADP-Glo kinase activity assay, PFKFB3; type: biochemical; settings: in vitro enzymatic assay
Method: The kinase activity of the bi-functional enzyme was quantified based on the production of ADP and F-2,6-P2 from ATP by ADP-GloTM Kinase Assay (Promega). The assay was performed in two steps; first, after the kinase reaction, an equal volume of ADP-GloTM Reagent was added to terminate the kinase reaction and deplete the remaining ATP. Second, the Kinase Detection Reagent was added to simultaneously convert ADP to ATP and allow the newly synthesized ATP to be measured using a luciferase/luciferin reaction. The light generated was measured using a luminescence counter (1450 MicroBeta TriLux). The assay was performed in white 384-well plates (OptiPlate, 6007299, PerkinElmer) by consecutive additions of a test compound solution (0.1 µL, serial diluted in DMSO from compound DMSO stock solution and dispensed by acoustic dispensing from UV-star 384-well plate 7360153, VWR), enzyme solution (5 µL) and substrate (fructose-6-phosphate (F6P) and adenosine-5′-triphosphate (ATP)) containing solution (5 µL). […] Four reference dose–response curves, one of them being the QC compound, were included and serial diluted as the test compounds. The final concentrations of all reagents per well were 50 mM Tris–HCl at pH 8.0, 10 mM MgCl2, 5 mM NaPi at pH 8.0, 81.48 nM PFKFB3 or 145 nM PFKFB4, 8 µM ATP, 100 µM F6P (acid treated and then neutralized to remove any contaminating F-2,6-P2[34]), 0.005% Tween-20 and 1 mM dithiothreitol. Enzyme, compounds, and controls were pre-incubated at room temperature for 15 min before the addition of substrate solution. The enzymatic reaction was allowed to proceed for 20 min and the reaction was terminated by the addition of ADP-GloTM Reagent (10 µL) to all wells followed by 40 min incubation at room temperature. […] The inhibitory potency or IC50 values of test compounds on the kinase activity of the enzymes were calculated using a four-parameter model (model 205) in XLfit (IDBS ActivityBase XE Runner).

U2OS cells [3] = test: IR-induced RAD51 / RPA32 foci, confocal; type: cell-based; settings: in combination with IR
Method: as §1
To visualize PFKFB3, RPA32, RAD51, BRCA1, 53BP1, and RRM2 IRIF, the cells were first washed with PBS and then incubated for 5 min at room temperature with cytoskeleton (CSK) buffer containing 10 mM PIPES pH 7.0 (Sigma Aldrich), 100 mM NaCl (EMD Millipore), 300 mM sucrose (Sigma Aldrich), 3 mM MgCl2 (Sigma Aldrich), and 0.7% Triton X-100 (Sigma Aldrich). After these treatments, the cells were washed once again with PBS and then fixed in 4% PFA with 2% sucrose.

U2OS DR-GFP cells = test: DR-GFP (HR) assay; type: cell-based
Method: 5 × 10^4 U2OS (DR-GFP) cells were seeded into 12-well plates, 24 h later cells were treated with the indicated siRNAs or inhibitors and, 24 h later, transfected with 150 ng of an I-SceI vector using JetPEI or JetPRIME (Polyplus transfections). The next day, the medium was changed; 24 h after this, cells were harvested by trypsinization and washed with PBS, and the GFP signal was measured by flow cytometry on a FACS Navios (as described above). The frequency of repair in cells treated with inhibitors or transfected with the various siRNAs was calculated relative to cells treated with DMSO or transfected with control siRNA.

U2OS cells [4] = test: Cell cycle analysis (propidium iodide, flow cytometry); type: cell-based; settings: 24 h post-IR
Method: For cell cycle analysis, cells were treated or transfected with siRNA as described and harvested at the indicated time points with trypsin. For studies using IR, cells were exposed to IR with 2 Gy, and harvested at the indicated time points with trypsin. The cells were washed in PBS and fixed with 70% ethanol in PBS at 4 °C for 1 h and then stored at −20 °C until staining. Ethanol was removed by centrifugation and cells were then washed in PBS before staining DNA with propidium iodide (PI) solution containing 40 μg/mL PI, 100 μg/mL RNase A, and 0.1% Triton X-100 (Sigma Aldrich). Cells were analyzed by flow cytometry on a FACS Navios (Beckman Coulter) using Kaluza software.

Chain of PFKFB3 (Q16875 whole entry): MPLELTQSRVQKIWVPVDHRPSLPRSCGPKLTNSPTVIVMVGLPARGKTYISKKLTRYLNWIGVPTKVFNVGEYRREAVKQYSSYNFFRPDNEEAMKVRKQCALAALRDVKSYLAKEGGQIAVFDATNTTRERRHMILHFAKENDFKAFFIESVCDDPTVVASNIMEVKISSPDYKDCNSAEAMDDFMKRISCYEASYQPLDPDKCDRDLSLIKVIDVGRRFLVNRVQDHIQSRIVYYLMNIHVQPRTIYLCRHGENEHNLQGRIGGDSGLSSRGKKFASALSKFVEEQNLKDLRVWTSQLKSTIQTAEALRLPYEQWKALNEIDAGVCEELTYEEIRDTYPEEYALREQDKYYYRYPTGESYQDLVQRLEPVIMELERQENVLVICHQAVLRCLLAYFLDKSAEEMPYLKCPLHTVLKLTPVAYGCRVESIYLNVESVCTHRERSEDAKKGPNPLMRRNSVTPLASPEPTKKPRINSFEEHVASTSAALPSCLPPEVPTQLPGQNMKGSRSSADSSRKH

Row | inhibition of recombinant PFKFB3 kinase activity (in words) (PFKFB3) | SMILES | IR-induced recruitment of PFKFB3 (in words) (U2OS cells [1]) | IR-induced Mre11 or Nbs1 foci formation (in words) (U2OS cells [2]) | IR-induced recruitment of RPA32 and RAD51 into repair foci (in words) (U2OS cells [3]) | effect on HR activity (in words) (U2OS DR-GFP cells) | accumulation of cells in G2/M phase upon IR (in words) (U2OS cells [4])
1 |  | N=C1NC(=O)/C(=C/c2ccc(O)cc2)S1 [Mirin, reference compound] | blocked | completely blocked |  |  | 
2 | could not achieve an IC50 value | O=C(C=Cc1cccnc1)c1ccncc1 [3-PO, 3-(3-pyridinyl)-1-(4-pyridinyl)-2-propen-1-one, reference compound] |  |  | unaffected | did not decrease HR activity; also recorded: without affecting HR activity | not seen
